{
  "source": "paper PMC8333425",
  "about": "“Discovery of a dual Ras and ARF6 inhibitor from a GPCR endocytosis screen” (Nature Communications, 2021)",
  "system": "β-arrestin1 recruitment to AT1R",
  "test": "BRET recruitment of β-arrestin1 to AT1R",
  "format": "cell-based, human",
  "details": "for AngII-promoted BRET, β-arrestin1 (Barr1) recruitment to AT1R: Comp 21 50 μM, individual experiments",
  "protocol": "HEK293SL cells were seeded at a density of 7.5 × 10^5 cells per 100-mm dish and 24 h later, transiently transfected as such. For receptor internalization experiments, cells were transfected with 0.12 μg AT1R-RlucII, B2R-RlucII, or β2AR-RlucII and 0.48 μg of either rGFP-CAAX (to assess removal from the PM) or rGFP-FYVE (to assess accumulation in the endosomes). For β-arrestin recruitment assays, cells were transfected with 0.48 μg of receptor-YFP along with 0.12 μg of β-arrestin-RlucII. For β-arrestin/AP-2 binding experiments, cells were transfected with 1 μg Flag-AT1R, 1 μg β2-Adaptin-YFP, and 0.12 μg β-arrestin2-RlucII. For G protein activation, cells were transfected with 3 μg of sp-Flag-AT1R along with either 4.5 μg of the Gαq-polycistronic BRET sensor or 0.24 μg of the Gαi3-RlucII and 0.6 μg of GFP10-Gγ2 and Gβ1 sensors or 0.12 μg PKN-RBD-RlucII and 0.48 μg of rGFP-CAAX. For PKC activation, cells were transfected with 3 μg of sp-Flag-AT1R and 0.18 μg of the PKC sensor. For GTPase activation experiments, cells were transfected with 1 μg Flag-AT1R, 0.48 μg of rGFP-CAAX, and either 0.12 μg of GGA3-PBD-RlucII, PAK-CRIB-RlucII or Raf-RBD-RlucII. For biosensor validation experiments, cells were additionally transfected with 500 ng Flag-K-Ras-WT, Flag-K-Ras-G12V, Flag-K-Ras-SOS-CAAX, HA-ARF6-WT, HA-ARF6-T27N, Myc-Rac1-WT, Myc-Rac1-Q61L or Myc-Rac1-T17N. For PI3K/Akt activation experiments, cells were transfected with 0.48 μg of rGFP-CAAX and 0.12 μg of Akt (PH)-RlucII. After 18 h of transfection, the media was replaced and cells were divided for subsequent experiments. Cells were detached and seeded onto poly-L-ornithine-coated 96-well flat white bottom plates (BrandTech Scientific) at a density of 2.5 × 10^4 cells per well in media. The next day, cells were washed once with Tyrode’s buffer (140 mM NaCl, 2.7 mM KCl, 1 mM CaCl2, 12 mM NaHCO3, 5.6 mM D-glucose, 0.5 mM MgCl2, 0.37 mM NaH2PO4, 25 mM HEPES, pH 7.4) and left in Tyrode’s buffer. For kinetics of β-arrestin recruitment or β-arrestin binding to receptor and AP-2 experiments, cells were serum starved for 30 min, pretreated with 21 (50 µM) or Barbadin (100 µM) for 30 min, stimulated with 100 nM AngII or 1 µM BK and BRET signals were monitored at indicated times using a Victor X Light plate reader (PerkinElmer). Coelenterazine H (final concentration of 5 µM) was added 3–5 min prior to BRET measurements. Filter set was 460/80 nm and 535/30 nm for detecting the RlucII Renilla luciferase (donor) and YFP (acceptor) light emissions, respectively. The BRET ratio was determined by calculating the ratio of the light emitted by YFP over the light emitted by the RlucII. For G protein activation, cells were serum starved, pretreated with compounds for 30 min, stimulated with 100 nM AngII for 2 min (Gαq, Gαi3, and Rho sensors) or 5 min (PKC sensor). For the kinetics of GTPase and PI3K/Akt activation, cells were serum starved, pretreated with 21 (50 µM) or Wortmannin (200 nM) for 30 min, stimulated with ligand (100 nM AngII or 100 ng/ml EGF) and BRET signals were monitored at indicated times. For concentration-response curves, cells were serum-starved, pretreated with various concentrations of compounds for 30 min and stimulated with ligand (100 nM AngII, 1 µM BK, 10 µM Isoproterenol (Iso) or 100 ng/ml EGF) in Tyrode’s buffer for 30 min for receptor internalization, 10 min for ARF6, 2 min for Rac and Rho activation and 5 min for Ras activation and PI3K/Akt activation. BRET signals were monitored using a Synergy2 (BioTek) microplate reader and coelenterazine 400a (final concentrations of 5 µM) added 3–5 min prior to BRET measurements. Filter set was 410/80 nm and 515/30 nm for detecting the RlucII Renilla luciferase (donor) and rGFP/GFP10 (acceptor) light emissions, respectively. The BRET ratio was determined by calculating the ratio of the light emitted by rGFP/GFP10 over the light emitted by the RlucII.",
  "note": "Where “and” joins values, the source holds several entries; their conditions need not be identical. Identical values can stand only once.",
  "data": [
    {"smiles": "CC(C)C(=O)N1CCN(c2ccc(NC(=O)c3cc4ccccc4o3)cc2Cl)CC1", "note": "[Compound 21]", "values": [
      {"measurement": "β-arrestin1 recruitment to AT1R at the PM", "setting": "50 μM", "value": "did not preclude"},
      {"measurement": "AngII-promoted BRET, β-arrestin1 (Barr1) recruitment to AT1R", "setting": "time 0 min", "value": 0},
      {"measurement": "AngII-promoted BRET, β-arrestin1 (Barr1) recruitment to AT1R", "setting": "time 5 min", "value": "0.07621 and 0.08371 and 0.04185"},
      {"measurement": "AngII-promoted BRET, β-arrestin1 (Barr1) recruitment to AT1R", "setting": "time 10 min", "value": "0.1164 and 0.1114 and 0.05569"},
      {"measurement": "AngII-promoted BRET, β-arrestin1 (Barr1) recruitment to AT1R", "setting": "time 15 min", "value": "0.1198 and 0.1209 and 0.06044"},
      {"measurement": "AngII-promoted BRET, β-arrestin1 (Barr1) recruitment to AT1R", "setting": "time 30 min", "value": "0.1393 and 0.143 and 0.07152"},
      {"measurement": "AngII-promoted BRET, β-arrestin1 (Barr1) recruitment to AT1R", "setting": "time 60 min", "value": "0.1361 and 0.1426 and 0.1043"}
    ]}
  ]
}
